Results from patent US8735391B2, “Synthesis of functionalized octahydro-isoquinolin-1-one-8-carboxamides, octahydro-isoquinolin-1-one-8-carboxylic esters and analogs, and therapeutic methods” (University of Kansas, priority 2008, dated 2014).

molecular target: DOR (Homo sapiens, UniProt P41143); assay: Opioid secondary binding, DOR (Table 4); details: Opioid secondary binding activity for Formula 10 analogs
Sequence (P41143 whole entry): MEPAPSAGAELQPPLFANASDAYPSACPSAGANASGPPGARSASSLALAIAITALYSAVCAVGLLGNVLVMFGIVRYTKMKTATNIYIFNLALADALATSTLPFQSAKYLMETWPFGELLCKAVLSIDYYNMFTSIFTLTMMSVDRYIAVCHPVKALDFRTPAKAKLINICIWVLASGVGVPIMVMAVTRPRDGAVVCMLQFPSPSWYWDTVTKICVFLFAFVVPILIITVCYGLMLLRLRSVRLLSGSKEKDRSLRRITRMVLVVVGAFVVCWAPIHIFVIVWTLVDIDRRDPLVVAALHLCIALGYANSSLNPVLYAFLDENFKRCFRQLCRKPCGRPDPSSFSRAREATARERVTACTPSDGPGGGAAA

Compound | Ki [µM]
CN(C(=O)[C@@H]1CC=C[C@@H]2CCN(c3ccccc3)C(=O)[C@@H]21)c1ccccc1 (racemic) [compound 12119] | 4.01
O=C(NC12CC3CC(CC(C3)C1)C2)[C@@H]1CC=C[C@@H]2CCN(c3ccccc3)C(=O)[C@@H]21 (racemic) [compound 11946] | 0.116
O=C(Nc1ccccc1)[C@@H]1CC=C[C@@H]2CCCN(C3CCCCC3)C(=O)[C@@H]21 (racemic) [compound 14423] | 8.84
CC(C)N(C(=O)[C@@H]1CC=C[C@@H]2CCN(c3ccccc3)C(=O)[C@@H]21)C1CCCCC1 (racemic) [compound 12140] | 0.416
CCOC(=O)C1CCCCN1C(=O)[C@@H]1CC=C[C@@H]2CCN(Cc3ccccc3)C(=O)[C@@H]21 (mixture of isomers) [compound 12127] | > 10
O=C(Nc1cc(F)c(F)c(F)c1)[C@@H]1CC=C[C@@H]2CCN(c3ccccc3)C(=O)[C@@H]21 (racemic) [compound 12098] | 0.289
CN(C(=O)[C@@H]1CC=C[C@@H]2CCN(CC3CCCCC3)C(=O)[C@@H]21)c1ccccc1 (racemic) [compound 12113] | 2.83
Cc1ccc(NC(=O)[C@@H]2CC=C[C@@H]3CCN(c4ccccc4)C(=O)[C@@H]32)cc1Cl (racemic) [compound 11925] | 0.015
O=C(Nc1ccc(F)c(C(F)(F)F)c1)[C@@H]1CC=C[C@@H]2CCN(Cc3ccccc3)C(=O)[C@@H]21 (racemic) [compound 13474] | 0.192
O=C(Nc1ccc(Cl)c(C(F)(F)F)c1)[C@@H]1CC=C[C@@H]2CN(Cc3ccccc3)C(=O)[C@@H]21 (racemic) [compound 14433] | 1.94
O=C(Nc1ccc(Br)c(C(F)(F)F)c1)[C@@H]1CC=C[C@@H]2CN(Cc3ccccc3)C(=O)[C@@H]21 (racemic) [compound 14432] | 2.77
C=CCNC(=O)[C@@H]1CC=C[C@@H]2CCN(CC3CCCCC3)C(=O)[C@@H]21 (racemic) [compound 12110] | 1.43
CN(C)C(=O)[C@@H]1CC=C[C@@H]2CCN(Cc3ccccc3)C(=O)[C@@H]21 (racemic) [compound 12101] | > 10
O=C1[C@H]2[C@H](C=CC[C@H]2C(=O)N2CCCC2)CCN1Cc1ccccc1 (racemic) [compound 12099] | 6.65
O=C(Nc1ccc(Br)c(C(F)(F)F)c1)[C@@H]1CC=C[C@@H]2CN(C3CCCCC3)C(=O)[C@@H]21 (racemic) [compound 14438] | 1.92
O=C(Nc1ccc([N+](=O)[O-])c(C(F)(F)F)c1)[C@@H]1CC=C[C@@H]2CCN(c3ccccc3)C(=O)[C@@H]21 (racemic) [compound 11926] | 0.035
O=C(Nc1ccc(Cl)cc1)[C@@H]1CC=C[C@@H]2CCN(CC3CC3)C(=O)[C@@H]21 (racemic) [compound 12092] | 3.23
O=C(Nc1ccc([N+](=O)[O-])cc1)[C@@H]1CC=C[C@@H]2CCN(c3ccccc3)C(=O)[C@@H]21 (racemic) [compound 11947] | 0.141
O=C(Nc1ccccc1)[C@@H]1CC=C[C@@H]2CCN(Cc3ccccc3)C(=O)[C@@H]21 (racemic) [compound 12125] | > 10
O=C([C@@H]1CC=C[C@@H]2CCN(c3ccccc3)C(=O)[C@@H]21)N1CCCC1 (racemic) [compound 12094] | > 10
Cc1ccc(CNC(=O)[C@@H]2CC=C[C@@H]3CCN(Cc4ccccc4)C(=O)[C@@H]32)cc1 (racemic) [compound 11956] | 2.36

Compound | Ki [µM]
COc1ccc(-c2cccc(CN3CC[C@H]4C=CC[C@@H](C(=O)Nc5ccc(Cl)c(C(F)(F)F)c5)[C@H]4C3=O)c2)cc1 (racemic) [compound 12161] | 2.13
O=C(Nc1cccc(Cl)c1)[C@@H]1CC=C[C@@H]2CCCN(C3CCCCC3)C(=O)[C@@H]21 (racemic) [compound 14425] | 6.04
O=C(Nc1ccc(Br)c(C(F)(F)F)c1)[C@@H]1CC=C[C@@H]2CCN(CC3CCCCC3)C(=O)[C@@H]21 (racemic) [compound 12173] | 0.508
O=C(Nc1cccnc1)[C@@H]1CC=C[C@@H]2CCN(c3ccccc3)C(=O)[C@@H]21 (racemic) [compound 11927] | 2.1
NC(=O)c1ccccc1NC(=O)[C@@H]1CC=C[C@@H]2CCN(c3ccccc3)C(=O)[C@@H]21 (racemic) [compound 12117] | 0.648
CCOC(=O)C1CCCCN1C(=O)[C@@H]1CC=C[C@@H]2CCN(CC3CCCCC3)C(=O)[C@@H]21 (mixture of isomers) [compound 12115] | 9.15
O=C(Nc1cc(F)c(F)c(F)c1)[C@@H]1CC=C[C@@H]2CCN(Cc3ccccc3)C(=O)[C@@H]21 (racemic) [compound 12103] | 0.18
CC(c1ccccc1)N1CCC2C=CCC(C(=O)Nc3ccc(F)c(F)c3)C2C1=O (mixture of isomers) [compound 12166] | 3.2
O=C(NCc1cccc(Br)c1)[C@@H]1CC=C[C@@H]2CCN(c3ccccc3)C(=O)[C@@H]21 (racemic) [compound 11949] | 0.302
Cc1ccc(NC(=O)[C@@H]2CC=C[C@@H]3CCN(Cc4ccccc4)C(=O)[C@@H]32)c(F)c1F (racemic) [compound 13476] | 0.559
CN(C)C(=O)[C@@H]1CC=C[C@@H]2CCN(c3ccccc3)C(=O)[C@@H]21 (racemic) [compound 12096] | > 10
O=C(Nc1ccccc1)[C@@H]1CC=C[C@@H]2CCN(CC3CC3)C(=O)[C@@H]21 (racemic) [compound 12153] | 6.62
O=C(NCC1CC1)[C@@H]1CC=C[C@@H]2CCN(CC3CC3)C(=O)[C@@H]21 (racemic) [compound 12090] | 5.65
O=C(NCc1ccc(Cl)c(Cl)c1)[C@@H]1CC=C[C@@H]2CCN(CC3CCCCC3)C(=O)[C@@H]21 (racemic) [compound 12136] | 1.3
O=C(NC1CCCCC1)[C@@H]1CC=C[C@@H]2CCCN(C3CCCCC3)C(=O)[C@@H]21 (racemic) [compound 14424] | 1.69
Cc1cc(C)c(NC(=O)[C@@H]2CC=C[C@@H]3CCN(CC4CC4)C(=O)[C@@H]32)c(C)c1 (racemic) [compound 11945] | > 10
O=C(Nc1ccc(Cl)cc1)[C@@H]1CC=C[C@@H]2CCN(c3ccccc3)C(=O)[C@@H]21 (racemic) [compound 12097] | 0.168
O=C(Nc1cccc(Cl)c1)[C@@H]1CC=C[C@@H]2CCN(CC3CC3)C(=O)[C@@H]21 (racemic) [compound 12154] | 1.18
O=C(Nc1ccc(I)cc1)[C@@H]1CC=C[C@@H]2CCN(CC3CC3)C(=O)[C@@H]21 (racemic) [compound 11942] | 1.28
O=C(Nc1ccc(Br)c(C(F)(F)F)c1)[C@@H]1CC=C[C@@H]2CCN(CC3CC3)C(=O)[C@@H]21 (racemic) [compound 12172] | 1.28
O=C(NCC1CC1)[C@@H]1CC=C[C@@H]2CCN(c3ccccc3)C(=O)[C@@H]21 (racemic) [compound 12095] | 1.23

Compound | Ki [µM]
COc1ccc(CNC(=O)[C@@H]2CC=C[C@@H]3CCN(Cc4ccccc4)C(=O)[C@@H]32)cc1OC (racemic) [compound 12126] | > 10
C=CCNC(=O)[C@@H]1CC=C[C@@H]2CCN(Cc3ccccc3)C(=O)[C@@H]21 (racemic) [compound 12122] | 3.43
Cc1cc(C)c(NC(=O)[C@@H]2CC=C[C@@H]3CCN(c4ccccc4)C(=O)[C@@H]32)c(C)c1 (racemic) [compound 11951] | 4.3
O=C(Nc1ccccc1)[C@@H]1CC=C[C@@H]2CN(Cc3ccccc3)C(=O)[C@@H]21 (racemic) [compound 14429] | 7.02
O=C(Nc1ccc(Cl)cc1)[C@@H]1CC=C[C@@H]2CCN(C3CCCCC3)C(=O)[C@@H]21 (racemic) [compound 12087] | 0.582
O=C(Nc1nccs1)[C@@H]1CC=C[C@@H]2CCN(CC3CC3)C(=O)[C@@H]21 (racemic) [compound 12157] | 3.5
NC(=O)c1ccccc1NC(=O)[C@@H]1CC=C[C@@H]2CCN(Cc3ccccc3)C(=O)[C@@H]21 (racemic) [compound 12123] | 5.93
O=C(Nc1cccc(Cl)c1)[C@@H]1CC=C[C@@H]2CN(C3CCCCC3)C(=O)[C@@H]21 (racemic) [compound 14437] | 0.962
O=C(Nc1cc(F)c(F)c(F)c1)[C@@H]1CC=C[C@@H]2CCN(CC3CC3)C(=O)[C@@H]21 (racemic) [compound 12093] | 4.37
O=C(Nc1ccc(Cl)c(C(F)(F)F)c1)[C@@H]1CC=C[C@@H]2CCN(CC3CC3)C(=O)[C@@H]21 (racemic) [compound 12156] | 0.788
O=C(Nc1cnccn1)[C@@H]1CC=C[C@@H]2CCN(CC3CCCCC3)C(=O)[C@@H]21 (racemic) [compound 12138] | 1.65
CCOC(=O)c1ccc(NC(=O)[C@@H]2CC=C[C@@H]3CCN(Cc4ccccc4)C(=O)[C@@H]32)cc1 (racemic) [compound 12124] | 7.82
O=C(NC1CCCCC1)[C@@H]1CC=C[C@@H]2CCN(CC3CC3)C(=O)[C@@H]21 (racemic) [compound 12152] | 2.52
CN(C)C(=O)[C@@H]1CC=C[C@@H]2CCN(C3CCCCC3)C(=O)[C@@H]21 (racemic) [compound 12086] | > 10
Cc1ccc(CNC(=O)[C@@H]2CC=C[C@@H]3CCN(c4ccccc4)C(=O)[C@@H]32)cc1 (racemic) [compound 11950] | 0.297
O=C(NCc1ccc(Cl)c(Cl)c1)[C@@H]1CC=C[C@@H]2CCN(c3ccccc3)C(=O)[C@@H]21 (racemic) [compound 12142] | 0.103
O=C(Nc1ccccc1)[C@@H]1CC=C[C@@H]2CN(C3CCCCC3)C(=O)[C@@H]21 (racemic) [compound 14435] | 1.61
O=C(Nc1cc(F)c(F)c(F)c1)[C@@H]1CC=C[C@@H]2CCN(C3CCCCC3)C(=O)[C@@H]21 (racemic) [compound 12088] | 2.79
CC(c1ccccc1)N1CCC2C=CCC(C(=O)Nc3cccc(Cl)c3)C2C1=O (mixture of isomers) [compound 12165] | 1.21
O=C(Nc1ccc(I)cc1)[C@@H]1CC=C[C@@H]2CCN(c3ccccc3)C(=O)[C@@H]21 (racemic) [compound 11948] | 0.083
O=C(Nc1cccnc1)[C@@H]1CC=C[C@@H]2CCN(C3CCCCC3)C(=O)[C@@H]21 (racemic) [compound 11921] | 0.836
